These results are taken from US20260308222A1, “STABILIZED ANALOGUES OF CALCITONIN” (YISSUM RESEARCH DEVELOPMENT COMPANY OF THE HEBREW …, priority 2024, published 2026).

For series [1], the target named is T1, calcitonin receptor (CTR) (Homo sapiens, UniProt P30988).
T1 sequence (P30988 25-474): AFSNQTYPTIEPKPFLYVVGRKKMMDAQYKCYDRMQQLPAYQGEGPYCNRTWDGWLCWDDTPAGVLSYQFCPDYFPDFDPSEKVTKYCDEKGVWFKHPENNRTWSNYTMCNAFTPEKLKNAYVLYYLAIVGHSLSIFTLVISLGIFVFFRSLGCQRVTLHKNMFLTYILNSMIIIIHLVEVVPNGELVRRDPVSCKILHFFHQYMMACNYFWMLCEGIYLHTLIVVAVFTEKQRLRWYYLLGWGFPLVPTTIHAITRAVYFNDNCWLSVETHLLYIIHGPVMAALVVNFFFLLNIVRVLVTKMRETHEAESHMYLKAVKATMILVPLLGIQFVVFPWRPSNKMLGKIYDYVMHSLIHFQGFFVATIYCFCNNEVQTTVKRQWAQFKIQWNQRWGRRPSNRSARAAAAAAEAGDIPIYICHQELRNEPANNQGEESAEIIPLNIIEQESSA
Put plainly: Ca^2+ concentration assay, HEK293 CALCR-HiTSeeker cell line. Format: cell-based. The arrangement: expressed in transfected cells. The conditions noted are these: HEK293 CALCR-HiTSeeker cells; for EC50: read-out: Ca^2+ EC50.

The target of series [2] is T1, calcitonin receptor (CTR). Put plainly: cAMP accumulation assay, U2OS Red cAMPNomad-CALCR cell line. Set-up: expressed in transfected cells; host or cells: U2OS Red cAMPNomad-CALCR. Format: cell-based. The conditions noted are these: U2OS Red cAMPNomad-CALCR cells; for EC50: overnight incubation, read-out: cAMP EC50.
Series [3] is described as follows: Degradation in simulated gastric fluid (SGF). Format: in vitro ADME. The conditions noted are these: pH 1.3, 37 °C; for SGF t1/2: pepsin 0.2 mg/mL stock; for half-life: simulated gastric fluid, pH 1.3, pepsin 0.2 mg/mL stock, read-out: SGF t1/2. As for the experimental part: sCT and its analogues were evaluated for their degradation in simulated gastric fluid (SGF). The stock solution of each analogue was prepared by dissolving 2 mg of the peptide in 1 mL water. The stock solution of pepsin enzyme was prepared by dissolving 5 mg of pepsin in 5 mL of 10 mM HCl (1 mg/mL), and then was diluted to a 0.2 mg/mL with 10 mM HCl. 7 For degradation, 34 μL of pepsin (0.2 mg/mL) was added to 100 μL of peptide (2 mg/mL) at pH 1.3 and the reaction incubated at 37° C. To monitor the degradation, 10 μL of the reaction aliquots were taken and quenched with 10 μL of 10 mM NaOH every 30 min for several hours and analyzed by HPLC using XSelect C18 column ([…], 130 A, 4.6×150 mm) with a gradient of 5-70% of 0.1% TFA in MeCN over 20 min with monitoring at 220 nm.

Series [4] in a line: Degradation in simulated intestinal fluid (SIF). The conditions noted are these: pH 6.8, 37 °C; for half-life: simulated intestinal fluid, pH 6.8, SIF t1/2, pancreatin 2 mg/mL stock.
The nature of series [5]: Circular dichroism analysis, percent α-helicity. Type of series: physicochemical. The conditions noted are these: 10 mM phosphate buffer pH 7, SDS; for % α helicity: 10-30 μM peptide, 2 h folding. As for the experimental part:
Following synthesis of the calcitonin analogues, the helicity of the calcitonin analogues was assessed by circular dichroism analysis. Far ultraviolet spectra (FIG. 6) were obtained from 195-260 nm on J-180 spectropolarimeter (Jasco) using 10-30 μM of sCT and all analogues in 10 mM phosphate buffer pH 7 and in the presence of sodium dodecyl sulphate (SDS), which were left for 2 h to allow folding. Each spectrum represents the average of 3 scans, and the mean residue ellipticity (θMRE) was calculated according to the following equation: […]
Percentage helicity of peptides as presented in Table 2 was calculated according to the following equation (Sommese, et al. 2010): […]
where n is the number of amino acids in the peptide.

Series [6] relates to vertebral fracture / acute back pain. The conditions noted are these: cited from earlier work.
For series [7], the system named is human calcitonin receptor (hCTR). The conditions noted are these: Potts Jr., 1992; cited from earlier work.

Regarding `CC(C)C[C@@H]1NC(=O)[C@@H](NC(=O)CNC(=O)[C@H](CC(C)C)NC(=O)[C@@H](NC(=O)[C@@H]2CSSC[C@H](N)C(=O)N[C@@H](CO)C(=O)N[C@@H](CC(N)=O)C(=O)N[C@@H](CC(C)C)C(=O)N[C@@H](CO)C(=O)N[C@@H]([C@@H](C)O)C(=O)N2)C(C)C)CCCCNCc2cc(ccc2O)C[C@@H](C(=O)N2CCC[C@H]2C(=O)N[C@@H](CCCNC(=N)N)C(=O)N[C@H](C(=O)N[C@@H](CC(N)=O)C(=O)N[C@H](C(=O)NCC(=O)N[C@@H](CO)C(=O)NCC(=O)N[C@H](C(=O)N2CCC[C@H]2C(N)=O)[C@@H](C)O)[C@@H](C)O)[C@@H](C)O)NC(=O)[C@H]([C@@H](C)O)NC(=O)[C@H](CCC(N)=O)NC(=O)[C@H](CC(C)C)NC(=O)[C@H](CCCCN)NC(=O)[C@H](Cc2c[nH]cn2)NC(=O)[C@H](CC(C)C)NC(=O)[C@H](CCC(=O)O)NC(=O)[C@H](CCC(N)=O)NC(=O)[C@H](CO)NC1=O` [KaY-1], in series [1], the “Ca^2+ EC50 / efficacy” value was “similar” and the EC50 was 166 ± 34.8 nM. For the same compound, in series [2], the “cAMP EC50 / potency” value is recorded as “EC50 in the nanomolar range” and the EC50 is 47.6 ± 24.1 nM. Further, in series [3], the “SGF t1/2” value is given as 191.2 ± 66.1 min and the half-life was 190 min. Also, the “half-life in SGF relative to sCT” value in series [3] (pepsin, vs sCT) is “five-fold longer half-life”. The “stability in SIF compared to sCT” value in series [4] (pancreatin, vs sCT) is on record as “did not exhibit any improvements”. For the same compound, the half-life in series [4] is 7.1 ± 0.7 min. Besides, in series [5], the “helicity retained following cyclization” value is recorded as “retain the high degree of helicity” and the “% α helicity” value amounted to 93.7%.
On to `CC(C)C[C@H](NC(=O)[C@H](CCCCN)NC(=O)CNC(=O)[C@H](CC(C)C)NC(=O)[C@@H](NC(=O)[C@@H]1CSSC[C@H](N)C(=O)N[C@@H](CO)C(=O)N[C@@H](CC(N)=O)C(=O)N[C@@H](CC(C)C)C(=O)N[C@@H](CO)C(=O)N[C@@H]([C@@H](C)O)C(=O)N1)C(C)C)C(=O)N[C@@H](CO)C(=O)N[C@@H](CCC(N)=O)C(=O)N[C@@H](CCC(=O)O)C(=O)N[C@@H](CC(C)C)C(=O)N[C@@H](Cc1c[nH]cn1)C(=O)N[C@@H](CCCCN)C(=O)N[C@@H](CC(C)C)C(=O)N[C@@H](CCC(N)=O)C(=O)N[C@H](C(=O)N[C@@H](Cc1ccc(O)cc1)C(=O)N1CCC[C@H]1C(=O)N[C@@H](CCCNC(=N)N)C(=O)N[C@H](C(=O)N[C@@H](CC(N)=O)C(=O)N[C@H](C(=O)NCC(=O)N[C@@H](CO)C(=O)NCC(=O)N[C@H](C(=O)N1CCC[C@H]1C(N)=O)[C@@H](C)O)[C@@H](C)O)[C@@H](C)O)[C@@H](C)O` [sCT, reference compound], for which, in series [1], the “Ca^2+ EC50 / efficacy” value is “similar” and the EC50 was 87 ± 17.5 nM. For the same compound, the “side effects of parenteral sCT” value in series [6] (intra-muscular and subcutaneous injections) was “gastrointestinal (GI) disturbances and injection site reactions”. In series [2], the “cAMP EC50 / potency” value was “EC50 in the nanomolar range” and the concentration for a half-maximal effect (EC50) was 13.5 ± 4.5 nM. In series [3], the “SGF t1/2” value was 35.6 ± 0.1 min and the half-life is 35 min. Further, the half-life in series [4] was 7.1 ± 0.7 min. For the same compound, in series [7], the “affinity for hCTR” value is recorded as “highest affinity for the human calcitonin receptor (hCTR)” and the “potency” value was “highest potency”. In addition, the “% α helicity” value in series [5] came out at 98.6%.
Regarding calcitonin, the “vertebral fracture recurrence and pain relief” value in series [6] (Chesnut III, et al., 2000) was “reduces the risk of vertebral fracture recurrence and provides pain relief for acute back pain caused by vertebral fractures”.

For orientation: EC50 means the midpoint of the concentration-response curve.
